What all share (assay type): in vivo, rat
One assay has as its system caspase-3. In words: Reverse transcription polymerase chain reaction on injured tissue of corneal chemical burn model, caspase-3. As to conditions: third day and seventh day after keratoconjunctival chemical injury. As for the experimental part:
Three days, and 1, 2, 4, and 8 weeks after injuring, corneal opacity and neoangiogenesis level were assessed in consideration of images of anterior ocular segment, and on the third day and the seventh day, the respective conjunctiva damaged parts were collected and then subjected to a reverse transcription polymerase chain reaction to assay expression of IL-1a, TGF-β, SDF-1, and caspase-3.
Tissues obtained from chronic intraocular pressure increase model and corneal chemical burn model were frozen, and then cut into small parts by using a fine knife. The tissue parts were treated with 1 ml of TRI reagent (Molecular Research Center, Inc.) and then, tissue and cell were lysed by homogenizer. The respective implication cDNA […] 0.2 mM dNTP, 10×buffer, 10 pmols primer, and 0.2 U Taq polymerase were mixed to obtain a volume of 20 μl, and then, PCR thermal cycler (a machine for PCR) was used for reaction for 5 minutes at 95° C., 40 second at 94° C., 40 seconds at 48 to 64° C., 40 seconds (35 cycles) at 72° C., and 10 minutes at 72° C. The amplified polymerase chain reaction product was identified by 1% agarose gel electrophoresis. β actin was used as a positive control for the polymerase chain reaction, and relative expression morphs of a target gene with respect to β actin expression were compared. […]

Assay [1] concerns nitric oxide (NO) concentration in aqueous humor. In words: NO concentration in aqueous humor after instillation (Griess assay). The conditions noted are these: 1 hour after the initial instillation, 50 μg/ml, day-time and night-time test, rank among instillation groups. As for the experimental part:
Normal rat models were divided into 4 groups, each group consisting of 6 rats, that is, 12 eyes, and at 8 AM and 8 PM, each group was instilled with angiogenin 50 μg/ml, angiogenin fragment 50 μg/ml, and latanoprost 50 μg/ml, and 1, 3, and 6 hours after instillation, 15 to 20 μl of aqueous humor was extracted from two rats, that is, 4 eyes for each group. For the extraction of aqueous humor, first, rats were anesthetized, and then, corneal dissection was performed in a direction from at 9 o'clock outside each eye toward microkeratome, and then, a capillary tube was brought into contact through a dissection wound to absorb aqueous humor, which was then moved to an eppendroff tube and frozen-preserved at a temperature of −70 degrees. Thereafter, nitric oxide (NO) concentration in aqueous humor was measured by Griess assay (nitric oxide colorimetric assay kit, Biovision, USA). The aqueous humor was diluted 10 times and then mixed with the same amount of griess solution and reacted together for 10 minutes. The reaction product was moved onto a well plate and then, absorbance of nitrate, which is a NO formation reactant, was measured by using spectrophotometer at a wavelength of 540 nm and compared with a reference value to quantify the nitrate.

Assay [2] deals with Schlemm's canal peripheral tissue in anterior chamber angle. Put plainly: H&E staining of Schlemm's canal peripheral tissue in anterior chamber angle of glaucoma model after instillation. The conditions noted are these: after instillation compared to before instillation.

The text below walks through data of US9855320B2, “Angiogenin for treatment of glaucoma” (CHUNG-ANG UNIVERSITY INDUSTRY-ACADEMIC COOPERATION …, priority 2011, dated 2018).

On to “angiogenin: recombinant human angiogenin (R&D systems); 14.4 kDa single chain protein of 123 amino acids, a ribonuclease inducing angiogenesis”, for which the “caspase-3 expression compared to the control” value in the assay with caspase-3 is listed as “less expressed”. Further, in assay [1], the “NO concentration increase in aqueous humor” value is listed as “greatest NO concentration increase”. Moreover, the “diameter and intercellular interval of Schlemm's canal” value in assay [2] is reported as “increased”.
